# Measurements published in patent US5175172A, “Method of alleviating AIDS symptoms and compositions therefor” (priority 1988, dated 1992).
# “And” between values parts separate entries of the source, which are not always exact repeats. Equal entries are not always repeated. Where two headings read alike, the source gives them in different places.
# Key:
# [1] = system: T4
# Protocol: Seven Month Follow-Up of Tacrine (THA) vs Zidovudine (AZT) in 72 HIV Infected Patients
# Comparison of serological and clinical status of HIV infected patients after THA versus AZT treatment in an open study.
# […] (61 males, 11 females) with HIV infection ([…], 10 stages II and III), received either AZT (46 patients 600-1200 mg./day) or THA (26 patients 150-250 mg/day). In cases of intolerance or inefficacy, treatment was discontinued and patients were treated by the other drug.
# [2] = system: Agp 24; test: Seven month follow-up of THA vs AZT in HIV infected patients (open study): Agp 24; format: in vivo
# Excerpt: Expressed in mean variation (%) in comparison with Do values.
# [3] = system: HIV; test: Seven month follow-up of THA vs AZT in HIV infected patients (open study): clinical results; format: in vivo, human
# Protocol: (§8) 70 patients (61 males, 11 females) with HIV infection (69 stage IV, 10 stages II and III), received either AZT (46 patients 600-1200 mg./day) or THA (26 patients 150-250 mg/day).
# (§9) 13 patients were treated by THA alone, 20 by AZT alone, 26 by AZT then THA and 13 by THA then AZT. Mean duration of treatment was 5.8 months for 53 courses of AZT 5.4 months for 52 courses of THA.
# [4] = Seven month follow-up of THA vs AZT in HIV infected patients (open study): withdrawals for toxicity; format: in vivo, human; settings: AZT n = 52; THA n = 51
# Protocol: as §8, §9
# [5] = system: HIV; settings: for Antigenemia, evolution (%) in comparison with D0: D0 value 462 pg/ml
# Protocol: (§1) Seven Month Follow-Up Study of Tacrine Administration to 26 HIV Infected Patients
# (§2) Tacrine was supplied as capsules containing 63.5 mg. Tacrine hydrochloride,monohydrate corresponding to 50 mg. base. An inert excipient (lactose) was added to fill white hard size 3 gelatin capsules.
# (§3) For the first 15 days, patients received 2 capsules a day (i.e., 1 capsule at 8 A.M. and 1 at 8 P.M.). After the first 15 days, if nausea had not occurred or had ceased, the dosage was augmented by 1 capsule (i.e., 1 capsule at 8 A.M., 1 at lunch time and 1 at 8 P.M.). After this second period of 15 days, if nausea had not occurred or had ceased, the dosage was augmented by a further 1 capsule, to reach 4 capsules a day (i.e., 1 capsule at 8 A.M., 1 at lunch time, 1 at 4 P.M. and 1 at 8 P.M.).
# (§4) D0 --Inclusion Examination--Serological, hematological and clinical determinations. Patients are supplied with capsules of Tacrine for 15 days.
# (§5) D15 --First Control after 15 Days Treatment--Serological, hematological and clinical determinations. Patients are supplied with capsules of Tacrine for 15 days.
# (§6) D1mth --Second control after 1 month of Treatment--Serological, hematological and clinical determinations. Patients are supplied with capsules of Tacrine for 1 month.
# (§7) D'n'mth --Same as D1mth. Following examinations of one month interval each.
# [6] = system: T4 Lymphocytes; settings: D0 value 203/mm^3
# Protocol: as §1, §2, §3, §4, §5, §6, §7
# [7] = Seven month follow-up of Tacrine in 26 HIV infected patients: tolerability, side effects and withdrawals; format: in vivo, human
# Protocol: Tacrine was supplied as capsules containing 63.5 mg. Tacrine hydrochloride,monohydrate corresponding to 50 mg. base.
# D0 --Inclusion Examination--Serological, hematological and clinical determinations.
# as §7
# Their mean age was 40.3 (range 27-65).
# Mean duration of treatment was 6 months.
# [8] = target: T1, reverse transcriptase of the HIV 1 virus (Human immunodeficiency virus type 1 group M subtype B, UniProt P04585); test: Action on reverse transcriptase of the HIV 1 virus (3H thymidine triphosphate incorporation); format: biochemical
# T1 construct: Action on Reverse Transcriptase of the HIV 1 Virus; made in house; host or cells: HIV 1 virus grown on CEM cells; virus pelleted from the culture medium and resuspended in Triton X 100 (viral lysate, not recombinant)
# Protocol: For the direct study of the action of the product on the activity of the reverse transcriptase, the virus was concentrated by ultracentrifugation and the plugs of virus removed from the culture medium are resuspended in a solution containing 0.15% Triton X 100, 0.05M Tris at pH 7.8 and 20% glycerol.
# These preparations, frozen at -20° C., are active for several months and served for the direct measurement of the products on enzymatic activity.
# The THA is diluted as stated above and added to 40 μl of the incubation solution under a volume of 5.5 μl before the addition of 10 μl of the enzymatic preparation. Initial concentrations of the product are thus 10 times more concentrated than the final dilution in the presence of the enzyme. The controls received 5.5 μl of water.
# [9] = target: polymerase of Micrococcus Lysodecticus; settings: read-out: Di50 for the inhibition of the DNA polymerase; specificity test, same concentrations as for reverse transcriptase
# Excerpt: In order to evaluate the specificity of THA, the effects on the reverse transcriptase and on a non-viral DNA polymerase, namely the polymerase of Micrococcus Lysodecticus have been compared at the same concentrations.
# [10] = system: CEM cells
# Protocol: The CEM lines utilized for the multiplication of the virus, as well as for the inhibition studies, was provided by Service of Francoise Barre-Sinoussi, at the Institute Pasteur. The culture medium is RPMI 1640, supplemented with 10% fetal calf serum, 2% glutamine and 1% antibiotics. The cells are counted and subcultured in a culture flask every 3 or 4 days. In certain cases, the fungicide amphotericin B is added in dosages of 5 μg./ml.
# The HIV 1 virus was provided from the same source and grown on CEM cells in the culture described above. The infection is created with a supernatant on the culture at a dose level of 50,000 cpm per 10^6 cells.
# Healthy CEM cells were infected with HIV 1 virus at 40,000 cpm per 10^6 cells. After 7 days of infection at 37° C. an equal quantity of healthy cells are added, non-absorbed viruses removed and 5.10^5 cells/ml. and 5 ml. of medium are brought into the presence of THA.
# During 5 or 6 days, the cells are counted and the supernatant of the culture is recovered for evaluation of the reverse transcriptase activity, that is to say, to determine the production of HIV 1 virus liberated by the cells. The cells are subculture into fresh medium containing the inhibitor at different concentrations.
# [11] = Hepatotoxicity on administration of Tacrine (prior reports and applicants' studies); format: in vivo; settings: more recent studies by Applicants
# [12] = system: HIV 1 virus; settings: 5 μM and 10 μM THA
# Protocol: The HIV 1 virus was provided from the same source and grown on CEM cells in the culture described above. The infection is created with a supernatant on the culture at a dose level of 50,000 cpm per 10^6 cells. The infection is followed by the evaluation of the activity of the reverse transcriptase which can reach a level of 10^6 cpm/ml. at the end of the culture. […]
# 35 μl of an incubation medium are made up of a solution of 0.07M magnesium chloride, 0.028M potassium chloride, 0.07M Tris at pH 7.8, 1.4 mM DTT and contain 5 μCi of ^3 H thymidine triphosphate, 2.5 μl of poly A are added to a unit of OD/ml. and 2.5 μl of oligo dT 12-18 to 1 unit of O.D/ml. and finally 10 μl of the plug resuspension from the ultracentrifugation or a control enzymatic preparation. […] The incorporated radioactivity which is as precipitated as an acid insoluble form was washed on Millipore HA 0.45 micron filters and counted by liquid scintillation counters. […]
# [13] = reported by Byrne and Acie, British Med. J. 298 (1989) 845; cited from earlier work
# [14] = during the first month of treatment
# [15] = within the first month of treatment
structure (smiles),measurement,setting,value
Cc1cn([C@H]2C[C@H](N=[N+]=[N-])[C@@H](CO)O2)c(=O)[nH]c1=O [AZT],"T4 /mm^3, mean variation (%) in comparison with D0",[1]; D1mth,+0.5%
same,"T4 /mm^3, mean variation (%) in comparison with D0",[1]; D2mth,+8.1%
same,"T4 /mm^3, mean variation (%) in comparison with D0",[1]; D3mth,+18.5%
same,"T4 /mm^3, mean variation (%) in comparison with D0",[1]; D4mth,+8.8%
same,"T4 /mm^3, mean variation (%) in comparison with D0",[1]; D5mth,+17.2%
same,"T4 /mm^3, mean variation (%) in comparison with D0",[1]; D6mth,-40%
same,"T4 /mm^3, mean variation (%) in comparison with D0",[1]; D7mth,-40%
same,"Agp 24, mean variation (%) in comparison with D0",[2]; D1mth,-20.6%
same,"Agp 24, mean variation (%) in comparison with D0",[2]; D2mth,+3.4%
same,"Agp 24, mean variation (%) in comparison with D0",[2]; D3mth,-1%
same,"Agp 24, mean variation (%) in comparison with D0",[2]; D4mth,+55.6%
same,"Agp 24, mean variation (%) in comparison with D0",[2]; D5mth,+36.5%
same,"Agp 24, mean variation (%) in comparison with D0",[2]; D6mth,+173%
same,"Agp 24, mean variation (%) in comparison with D0",[2]; D7mth,+142%
same,"Deaths, number","[3]; AZT n = 52, THA n = 51",7
same,"Deaths, percent","[3]; AZT n = 52, THA n = 51",12%
same,"Kaposi Emergence, number","[3]; AZT n = 52, THA n = 51",3
same,"Kaposi Emergence, percent","[3]; AZT n = 52, THA n = 51",5%
same,"Opportunistic Infections, number","[3]; AZT n = 52, THA n = 51",27
same,"Opportunistic Infections, percent","[3]; AZT n = 52, THA n = 51",46%
same,"Withdrawals for toxicity, number",[4],29
same,"Withdrawals for toxicity, percent",[4],49%
"Nc1c2c(nc3ccccc13)CCCC2 [Tacrine, 9-Amino-1,2,3,4-tetrahydroacridine]","Antigenemia, evolution (%) in comparison with D0",[5]; D1mth,-35.3%
same,"Antigenemia, evolution (%) in comparison with D0",[5]; D2mth,-22.1%
same,"Antigenemia, evolution (%) in comparison with D0",[5]; D3mth,-24%
same,"Antigenemia, evolution (%) in comparison with D0",[5]; D4mth,-17%
same,"Antigenemia, evolution (%) in comparison with D0",[5]; D5mth,-19.4%
same,"Antigenemia, evolution (%) in comparison with D0",[5]; D6mth,-54%
same,"Antigenemia, evolution (%) in comparison with D0",[5]; D7mth,-51.3%
same,"Antigenemia, evolution (%) in comparison with D0",[5]; D15,-38.5%
same,"Opportunistic infections, cases",[5]; in 4 patients,4 cases
same,Kaposi sarcoma emergence,"[5]; number of cases, 26 patients",2
same,Opportunistic infections: pneumocystosis,"[5]; number of cases, 26 patients",1
same,Opportunistic infections: toxoplasmosis,"[5]; number of cases, 26 patients",1
same,"Opportunistic infections, patients",[5]; seven month follow-up,4/26
same,Mortality,"[5]; seven month follow-up, 26 patients",none
same,"T4 Lymphocytes counts, evolution (%) in comparison with D0",[6]; D1mth,+16.7%
same,"T4 Lymphocytes counts, evolution (%) in comparison with D0",[6]; D2mth,+23.9%
same,"T4 Lymphocytes counts, evolution (%) in comparison with D0",[6]; D3mth,+19.5%
same,"T4 Lymphocytes counts, evolution (%) in comparison with D0",[6]; D4mth,+28%
same,"T4 Lymphocytes counts, evolution (%) in comparison with D0",[6]; D5mth,+26.6%
same,"T4 Lymphocytes counts, evolution (%) in comparison with D0",[6]; D6mth,+8.4%
same,"T4 Lymphocytes counts, evolution (%) in comparison with D0",[6]; D7mth,+25.6%
same,"T4 Lymphocytes counts, evolution (%) in comparison with D0",[6]; D15,+5%
same,Hematotoxicity: decrease of hematological counts,[7]; 26 patients,0%
same,Hepatotoxicity: transaminase elevation,[7]; 26 patients,0%
same,"Nausea, cases",[7]; after the first month,2 cases
same,"Nausea, incidence",[7]; after the first month,10%
same,"Nausea, cases",[7]; [14],9 cases
same,"Nausea, incidence",[7]; [14],35%
same,"Withdrawals for side effects (severe nausea or neurologic), cases",[7]; [15],2 cases
same,"Withdrawals for side effects (severe nausea or neurologic), incidence",[7]; [15],8%
same,"T4 /mm^3, mean variation (%) in comparison with D0",[1]; D1mth,+20.5%
same,"T4 /mm^3, mean variation (%) in comparison with D0",[1]; D2mth,+31.7%
same,"T4 /mm^3, mean variation (%) in comparison with D0",[1]; D3mth,+55.2%
same,"T4 /mm^3, mean variation (%) in comparison with D0",[1]; D4mth,+74.8%
same,"T4 /mm^3, mean variation (%) in comparison with D0",[1]; D5mth,+91.9%
same,"T4 /mm^3, mean variation (%) in comparison with D0",[1]; D6mth,+52%
same,"T4 /mm^3, mean variation (%) in comparison with D0",[1]; D7mth,+68.3%
same,"Agp 24, mean variation (%) in comparison with D0",[2]; D1mth,-39.4%
same,"Agp 24, mean variation (%) in comparison with D0",[2]; D2mth,-28.3%
same,"Agp 24, mean variation (%) in comparison with D0",[2]; D3mth,-26.2%
same,"Agp 24, mean variation (%) in comparison with D0",[2]; D4mth,-21.5%
same,"Agp 24, mean variation (%) in comparison with D0",[2]; D5mth,-18.7%
same,"Agp 24, mean variation (%) in comparison with D0",[2]; D6mth,-39.5%
same,"Agp 24, mean variation (%) in comparison with D0",[2]; D7mth,-25%
same,"Deaths, number","[3]; AZT n = 52, THA n = 51",0
same,"Kaposi Emergence, number","[3]; AZT n = 52, THA n = 51",2
same,"Kaposi Emergence, percent","[3]; AZT n = 52, THA n = 51",4%
same,"Opportunistic Infections, number","[3]; AZT n = 52, THA n = 51",3
same,"Opportunistic Infections, percent","[3]; AZT n = 52, THA n = 51",6%
same,"Deaths, significance p in comparison with AZT courses",[3]; THA vs AZT courses,< 0.05
same,"THA versus AZT course of treatment, conclusion",[3]; after 6 months of treatment,"decrease in Agp24 levels, mortality and incidences of opportunistic infections"
same,"Withdrawals for toxicity, number",[4],4
same,"Withdrawals for toxicity, percent",[4],8%
same,IC50,"[8]; 37° C., 1 hour, read-out: 50% inhibition (Di50) of HIV 1 reverse transcriptase (converted)",400 µM and 504 µM
same,Inhibition of HIV 1 reverse transcriptase in combination with HPA 23,[8]; HPA 23 at 4 μg/ml,synergistic effect with HPA 23
same,Inhibiting effect on reverse transcriptase,[8]; conclusions,low
same,IC50,"[8]; specificity test vs DNA polymerase, same concentrations, read-out: Di50 with respect to the reverse transcriptase",450 µM
same,IC50,[9],1 mM
same,Dose dependence of protective effect in CEM cultures,[10],dose-dependent
same,Proliferation of HIV 1 infected CEM cultures,[10]; 1 μM THA,viral infection inhibits the proliferation
same,Proliferation of HIV 1 infected CEM cultures,[10]; 5 μM THA,the cells multiply up to the 16th. day and then decline to be destroyed like the previous cultures right up to the 28th day
same,Proliferation of HIV 1 infected CEM cultures,[10]; 10 μM THA,the cultures continue to proliferate right up to the 28th day
same,Protection of CEM cultures against lytic effect of HIV virus,[10]; at the 5 μM and more particularly at the 10 μM level,protects CEM cultures against the lytic effect of the HIV virus
same,Hepatotoxicity with purified sources of Tacrine,[11],hepatotoxicity can be avoided by utilizing purified sources of Tacrine
same,Viral replication with respect to control cultures,[12],viral replication persists although significantly diminished
same,Hepatotoxicity on long term administration,[13],long term administration of Tacrine is not practical because of hepatotoxicity
O=C(O)P(=O)(O)O [phosphonoformate],IC50,"[8]; 50% inhibition (Di50) of HIV 1 reverse transcriptase, 37° C., 1 hour",1 µM
